As a reminder, the IC50 is the point on the concentration scale where inhibition reaches its midpoint. By melting point is commonly meant the temperature, or range, at which the solid turns liquid.

Structures are written as SMILES. Read-outs that look alike come from different tables or passages of the source. Bounds are passed on as bounds.

The values that follow come from US20130123367A1, “VINYLOGOUS CHALCONE DERIVATIVES AND THEIR MEDICAL USE” (MEDIZINISCHE UNIVERSITAT WIEN, priority 2010, published 2013).

The test system of data set [1] is breast cancer cell line MDA MB231. The data set can be described thus: Crystal violet assay, MDA MB231. It is filed as cell-based. The following applies: Homo sapiens, MDA-MB-231, n = 3. As for the experimental part: (§1) For quantification, cells are treated with crystal violet, a dye that stains proteins. After washing away of excess dye, the remaining crystal violet is dissolved in a sodium citrate solution. The solution is analyzed photometrically at 590 nm. The optical density of this solution depends on the concentration of crystal violet and therefore on the amount of cells. […] To reduce effects of evaporation, only the inner 60 wells of 96-well plates (coated with 0.1% gelatine solution for studies with HUVEC) were used for experiments.
(§2) Cells were treated with 2 μl of the working solution 24 h after seeding. Final compound concentrations in the well were 10 μM for the first round of screening. The final DMSO concentration was 0.5%. […] After finishing the addition of compounds, the T0-plate was stained with crystal violet for giving the cell density at time point zero. […] After air drying of the plates the crystal violet on the cells was dissolved in 100 μl of sodium citrate solution, and the absorption was measured with a plate reader at 590 nm.
(§3) Mean values were corrected with the absorption of stained medium and the corrected absorption of T0 cells. Cell growth was calculated relative to DMSO control for data comparison. IC50 values (50% inhibition of cell growth) were determined with GraphPad Prism® (Version 4.03) using nonlinear regression (sigmoidal dose-response with variable slope). […]

Data set [2] relates to colon cancer cell line HT29. The data set can be described thus: Cell proliferation assay using crystal violet, HT29. The format is cell-based. The following applies: Homo sapiens, HT-29, n = 3, 24 h incubation. Here is the method: as §1
(§4) Cells were seeded at a density of 5 000 cells per well in 100 μl growth medium (HUVEC) or 20 000 (HCT116), 15 000 (SW480 and 518A2) or 10 000 (HT29) cells per well in 200 μl growth medium in 55 wells per plate. 5 wells were filled with medium only. Additionally, a 96-well plate with cells in 12 wells and medium in 6 wells was prepared as T0-plate. The next day, additional 98 μl of growth medium were added in every well (only HUVEC).
(§5) Cells were treated with 2 μl of the working solution 24 h after seeding. Final compound concentrations in the well were 10 μM for the first round of screening. The final DMSO concentration was 0.5%. […] After finishing the addition of compounds, the T0-plate was stained with crystal violet for giving the cell density at time point zero. Before staining, the growth medium was poured away. Wells were filled with 50 μl crystal violet solution for 10 min. Then the staining solution was washed away with water. Since crystal violet is environmentally hazardous the waste was collected and disposed in an appropriate manner. After air drying of the plates the crystal violet on the cells was dissolved in 100 μl of sodium citrate solution, and the absorption was measured with a plate reader at 590 nm.
as §3

In data set [3] the test system is CLL cell lines MEC-1 and MEC-2. The data set can be described thus: Annexin V-FITC / propidium iodide staining, apoptosis in CLL cell lines. The format is cell-based. The settings on record: MEC-1 and MEC-2; 24 and 48 hours incubation; FIG. 4. As for the experimental part: Apoptosis was detected using propidium iodide/Annexin V FACS staining (Bender MedSystems).
Annexin V binds to phosphatidylserine which is exposed at the cell surface during execution of apoptosis. First, cells were seeded out at a density of 1.5 to 2.5 million cells per well in 12 well plates and then growth medium was added to each well to get a final volume of 2.5 ml. Compounds to be tested were diluted with medium from a 10 mM stock solution in DMSO to get different concentrations and cells were treated with 25 μl of these solutions. The final DMSO concentration was 0.5%. All treatments and controls were performed twice. Cells were incubated at 37° C. and 5% CO2 for 24 h and 48 h. Then, growth medium was removed by centrifugation, the supernatant discarded and 200 μl of an Annexin V solution were added. After 10 minutes in the dark, cells were washed once with Annexin buffer and the solution removed by centrifugation. The supernatant was discarded again and cells were suspended in 200 μl of a propidium iodide solution. Cells were measured by flow cytometry with a total of 10 000 events. Data were analyzed with CellQuest Pro™.
Compounds 1 and 22 were also tested on the CLL cell lines MEC-1 and MEC-2 in comparison with fludarabine and cyclophosphamide, two compounds used in the treatment of hematological malignancies (MEC-1 is a fludarabine-resistant cell line).

Data set [4] deals with colon cancer cell line SW480. The data set can be described thus: Cell proliferation assay using crystal violet, SW480. The format is cell-based. The settings on record: Homo sapiens, n = 3, 24 h incubation. As for the experimental part:
as §1, §4, §5
Mean values were corrected with the absorption of stained medium and the corrected absorption of T0 cells. Cell growth was calculated relative to DMSO control for data comparison. IC50 values (50% inhibition of cell growth) were determined with GraphPad Prism® (Version 4.03) using nonlinear regression (sigmoidal dose-response with variable slope).
Compounds showing an inhibition of proliferation of more than 50% at a concentration of 10 μM were defined as active, and their IC50-values were determined.

The test system of a further data set is HUVEC. In words: Cell proliferation assay using crystal violet, HUVEC. The format is cell-based. The settings on record: Homo sapiens. As for the experimental part: as §1, §4, §5
(§6) Mean values were corrected with the absorption of stained medium and the corrected absorption of T0 cells. Cell growth was calculated relative to DMSO control for data comparison.

The next data set has as its system HCT116 cell line. In words: Cell proliferation assay using crystal violet, HCT116. The following applies: Homo sapiens, HCT-116, n = 3, 24 h incubation. It is filed as cell-based. Here is the method: as §1, §4, §5, §6
In data set [5] the test system is HL60 (Acute promyelocytic leukemia). In words: Cell viability assay using EZ4U viability kit, HL60. The format is cell-based. The following applies: Homo sapiens. As for the experimental part:
(§7) For quantification, cells are treated with a tetrazolium salt as indicator of cell viability. […] Then, the solution is analyzed photometrically at 450 nm with 620 nm as reference.
(§8) The final DMSO concentration was 0.5%. […] Then, wells were filled with 20 μl substrate solution for 2 to 4 hours and analyzed.
(§9) Cell viability was calculated relative to DMSO control for data comparison. IC50 values (50% inhibition of cell growth) were determined with GraphPad Prism® (Version 4.03) using nonlinear regression (sigmoidal dose-response with variable slope).

Data set [6] concerns vascular smooth muscle cells (VSMC). In words: Crystal violet assay, VSMC. It is filed as cell-based. The settings on record: Rattus norvegicus, n = 3. Here is the method:
as §1, §2, §3

Data set [7] has as its system chronic lymphocytic leukemia (CLL) cells in co-culture with stromal cells. The data set can be described thus: Co-culture model of primary CLL cells and stromal cells (CellTiter-Blue viability). It is filed as cell-based. The following applies: 48 h incubation; mean of 5 patients; FIG. 7. The source says: FIG. 7: […] Data points represent the arithmetic mean of 5 patients calculated in relation to the control. […] The final DMSO concentration was 0.5%. […] In many tumors, the microenvironment plays a major role for the survival of malignant cells. In chronic lymphocytic leukemia (CLL), it has been shown that interaction with the microenvironment, among other things, promotes the survival of tumor cells during chemotherapy. Thus, co-culture models have been developed which better reflect the in vivo situation. The inventors used such a pre-clinical model for drug incubation to study the effect of stromal cells on viability.
On the technique in general: The colour change of resazurin is a common sign of viable cells or microbes.

The test system of data set [8] is K562 (Chronic myeloid leukemia). In words: Cell viability assay using EZ4U viability kit, K562. The format is cell-based. The settings on record: Homo sapiens. As for the experimental part: as §7, §8, §9
For data set [9], the system named is Jurkat (T-cell acute lymphoblastic leukemia). The data set can be described thus: Cell viability assay using EZ4U viability kit, Jurkat. It is filed as cell-based. The settings on record: Homo sapiens. As for the experimental part: as §7, §8, §9
Where [10] appears, read: HL-60, 24 h incubation, read-out: IC50 (nM) HL60 24 h.
Where [11] appears, read: HL-60, 48 h incubation, read-out: IC50 (nM) HL60 48 h.
[12] abbreviates: 24 h incubation, read-out: IC50 (nM) K562 24 h (converted).
The mark [13] stands for this setting: 48 h incubation, read-out: IC50 (nM) K562 48 h (converted).
Setting [14] is: 24 h incubation, read-out: IC50 (nM) Jurkat 24 h (converted).
[15] abbreviates: 48 h incubation, read-out: IC50 (nM) Jurkat 48 h (converted).

For the compound `COc1ccccc1/C=C/C=C/C(=O)c1cc(OC)c(OC)c(OC)c1` [Compound 1, 5-(2-Methoxyphenyl)-1-(3′,4′,5′-trimethoxyphenyl)-2,4-pentadiene-1-one], the IC50 is 630 nM in [1]; 540 nM in data set [2]; 520 nM in data set [4]; 340 nM in the data set on HUVEC (n = 3, 48 h incubation, read-out: IC50 (nM) HUVEC (converted)); 280 nM in the data set with HUVEC (n = 3, read-out: IC50 (nM) HUVEC (Table 2)); 230 nM with HCT116 cell line. For the same compound, the IC50 was 490 nM in data set [5] (setting [10]); 170 nM in [5] (setting [11]); greater than 100000 nM in data set [6]; 20900 nM in [8] (setting [12]); 50 nM in data set [8] (setting [13]); 1110 nM in [9] (setting [14]). In addition, in [9] (setting [15]), the 50% inhibitory concentration (IC50) is 630 nM. The “apoptosis induction compared with fludarabine and cyclophosphamide” value in data set [3] was “induced apoptosis in a lower concentration range than fludarabine and cyclophosphamide”. The “viability of CLL cells in co-culture with stromal cells” value in data set [7] was “higher cytotoxicity than the control drugs fludarabine and cyclophosphamide”.
Compound `CCOc1ccccc1C(=O)/C=C/c1ccc2ccccc2c1` [Compound 22, 3-(2-Naphthyl)-1-(2′-ethoxyphenyl)-2-propene-1-one] returned a melting point of 96 to 97 °C. The “apoptosis induction compared with fludarabine and cyclophosphamide” value in data set [3] was “induced apoptosis in a lower concentration range than fludarabine and cyclophosphamide”. Further, in data set [4], half-maximal inhibition (IC50) required 30 nM. The IC50 in data set [5] (setting [10]) is 10 nM. Moreover, the IC50 in [5] (setting [11]) stood at 20 nM. The “viability of CLL cells in co-culture with stromal cells” value in data set [7] is “higher cytotoxicity than the control drugs fludarabine and cyclophosphamide”. The IC50 in data set [8] (setting [12]) is 17700 nM. Also, the IC50 in data set [8] (setting [13]) is 13700 nM. Further, the IC50 in [9] (setting [14]) is 7840 nM. Moreover, the half-maximal inhibitory concentration (IC50) in data set [9] (setting [15]) is 7210 nM.
